Measurements published in patent US12370235B2, “Synthetic, non-natural antimicrobial peptides inspired by Staphylococcus auricularis delta toxin” (University of Saskatchewan, priority 2021, dated 2025).
Ends that are not written are not given here.

How the values were obtained:
[1] = tested on: S. aureus ATCC 33592 (MRSA SCCmec type III); assay: MIC, broth dilution; format: cell-based, Staphylococcus aureus; conditions: Table 5; STIP3 variants, highest concentration 100 μg/mL
Description: (§1) MIC determination. MICs were measured using peptides with 95% purity. For bacterial studies, cation-adjusted Mueller Hinton (MH) broth was used as the growth medium whereas Yeast Peptone Dextrose (YPD; 10 g/L yeast extract, 20 g/L peptone, 20 g/L dextrose) was used for Candida spp. and other yeast. Microorganisms were diluted to an optical density of […] in MH or YPD broth and a 180 μl volume was mixed with 20 μl of peptide arrayed as a 2-fold dilution series in a flat-bottom 96-well microtitre plate. A control was performed using 20 μl of sterile water. Plates were incubated as standing cultures overnight at 37° C.
(§2) Determination of minimum inhibitory concentrations. The MICs were measured for bioactive peptides identified from the initial screen. For bacterial studies, cation-adjusted Mueller Hinton (MH) broth was used as the growth medium whereas YPD was used for C. albicans. Bacterial cultures were diluted to a OD value of 6×10^−4 in MH broth and a 180 μl volume was mixed with 20 μl of peptide arrayed as 2-fold dilution series in a 96-well plate. For the positive control, 20 μl of sterile water was used. Plates were incubated as standing cultures overnight at 37° C. The lowest peptide concentration that resulted no observed microbial growth after an overnight treatment was defined as the MIC.

S. aureus ATCC 29213 = assay: MIC, broth dilution; format: cell-based, Staphylococcus aureus; conditions: Table 5; STIP3 variants, highest concentration 100 μg/mL
Description: as §1, §2

[2] = tested on: S. aureus ATCC BAA-42 (MRSA SCCmec type VI); assay: MIC, broth dilution; format: cell-based, Staphylococcus aureus; conditions: Table 5; STIP3 variants, highest concentration 100 μg/mL
Description: as §1, §2

[3] = tested on: S. aureus ATCC BAA-44 (MRSA SCCmec type I); assay: MIC, broth dilution; format: cell-based, Staphylococcus aureus; conditions: Table 5; STIP3 variants, highest concentration 100 μg/mL
Description: as §1, §2

[4] = tested on: S. aureus ATCC BAA-1683 (MRSA SCCmec type IV); assay: MIC, broth dilution; format: cell-based, Staphylococcus aureus; conditions: Table 5; STIP3 variants, highest concentration 100 μg/mL
Description: as §1, §2

[5] = tested on: S. aureus ATCC BAA-2094 (MRSA SCCmec type V); assay: MIC, broth dilution; format: cell-based, Staphylococcus aureus; conditions: Table 5; STIP3 variants, highest concentration 100 μg/mL
Description: as §1, §2

[6] = tested on: S. aureus ATCC BAA-2313 (MRSA SCCmec type XI); assay: MIC, broth dilution; format: cell-based, Staphylococcus aureus; conditions: Table 5; STIP3 variants, highest concentration 100 μg/mL
Description: as §1, §2

[7] = tested on: S. aureus ATCC BAA-41 (MRSA SCCmec type II); assay: MIC, broth dilution; format: cell-based, Staphylococcus aureus; conditions: Table 5; STIP3 variants, highest concentration 100 μg/mL
Description: as §1, §2

[8] = tested on: Mannheimia haemolytica ATCC 33393; assay: MIC, broth dilution; format: cell-based; conditions: Table 11; highest concentration 25 μg/mL
Description: as §1, §2
The ability of STIP3 variants to inhibit the growth of Mannheimia haemolytica ATCC 33393 was evaluated. This included an alanine scan of STIP3-1 (FIG. 8 & Table 10) as well as 30 rationally-designed STIPs that were evaluated in the preceding Examples against other pathogens (Table 11). Substitutions at a greater number of sites were tolerated in the context of antimicrobial activity. Moreover, the inclusion of basic natural and unnatural amino acids (e.g. lysine, ornithine, and arginine) at positions 3, 4 and 11 (i.e. X1, X2, and X4 of SEQ ID NO: 32) to afford a more uniformly cationic peptide increased activity against M. haemolytica.

[9] = tested on: Candida duobushaemulonii AR 394; assay: MIC, YPD broth, CDC and FDA AR Candida isolate panel; format: cell-based; conditions: Table 9 below the line: only 200 or 100 μg/mL tested; values reported as 100 are ≤100 μg/mL
Description: as §1

[10] = tested on: Candida haemulonii AR 395; assay: as above; format: cell-based; conditions: Table 9 below the line: only 200 or 100 μg/mL tested; values reported as 100 are ≤100 μg/mL
Description: as §1

Candida krusei AR 397 = assay: as above; format: cell-based; conditions: Table 9 below the line: only 200 or 100 μg/mL tested; values reported as 100 are ≤100 μg/mL
Description: as §1

[11] = tested on: Candida duobushaemulonii AR 392; assay: as above; format: cell-based; conditions: Table 9 below the line: only 200 or 100 μg/mL tested; values reported as 100 are ≤100 μg/mL
Description: as §1

[12] = tested on: Candida haemulonii AR 393; assay: as above; format: cell-based; conditions: Table 9 below the line: only 200 or 100 μg/mL tested; values reported as 100 are ≤100 μg/mL
Description: as §1

[13] = tested on: Saccharomyces cerevisiae AR 399; assay: as above; format: cell-based; conditions: Table 9 below the line: only 200 or 100 μg/mL tested; values reported as 100 are ≤100 μg/mL
Description: as §1

[14] = tested on: Candida duobushaemulonii AR 391; assay: as above; format: cell-based; conditions: Table 9 below the line: only 200 or 100 μg/mL tested; values reported as 100 are ≤100 μg/mL
Description: as §1

[15] = tested on: Saccharomyces cerevisiae AR 400; assay: as above; format: cell-based; conditions: Table 9 below the line: only 200 or 100 μg/mL tested; values reported as 100 are ≤100 μg/mL
Description: as §1

Kodamae ohmeri AR 396 = assay: as above; format: cell-based; conditions: Table 9 below the line: only 200 or 100 μg/mL tested; values reported as 100 are ≤100 μg/mL
Description: as §1

[16] = tested on: Candida lusitaniae AR 398; assay: as above; format: cell-based; conditions: Table 9 below the line: only 200 or 100 μg/mL tested; values reported as 100 are ≤100 μg/mL
Description: as §1

C. albicans MYA-2876 = assay: MIC, YPD broth; format: cell-based, Candida albicans; conditions: Table 8
Description: as §1, §2

Sequence	MIC S. aureus ATCC 33592 (III) [1] [µg/mL]	MIC S. aureus ATCC 29213 (S. aureus ATCC 29213) [µg/mL]	MIC S. aureus ATCC BAA 42 (VI) [2] [µg/mL]	MIC S. aureus ATCC BAA 44 (I) [3] [µg/mL]	MIC S. aureus ATCC BAA 1683 (IV) [4] [µg/mL]	MIC S. aureus ATCC BAA 2094 (V) [5] [µg/mL]	MIC S. aureus ATCC BAA 2313 (XI) [6] [µg/mL]	MIC S. aureus ATCC BAA 41 (II) [7] [µg/mL]	MIC (μg/mL) M. haemolytica [8]	MIC (μg/mL) Candida duobushaemulonii AR 394 [9]	MIC (μg/mL) Candida haemulonii AR 395 [10]	MIC (μg/mL) Candida krusei AR 397 (Candida krusei AR 397) [µg/mL]	MIC (μg/mL) Candida duobushaemulonii AR 392 [11]	MIC (μg/mL) Candida haemulonii AR 393 [12]	MIC (μg/mL) Saccharomyces cerevisiae AR 399 [13] [µg/mL]	MIC (μg/mL) Candida duobushaemulonii AR 391 [14]	MIC (μg/mL) Saccharomyces cerevisiae AR 400 [15] [µg/mL]	MIC (μg/mL) Kodamae ohmeri AR 396 (Kodamae ohmeri AR 396)	MIC (μg/mL) Candida lusitaniae AR 398 [16] [µg/mL]	MIC C. albicans MYA-2876 (C. albicans MYA-2876) [µg/mL]
TVGGLVKWILAAVKKFA [STIP3-12, TVGGLVKWILAAVKKFA]	25	25	25	25	25	50	25	25	25 µg/mL	> (values below the line were determined using two concentrations of peptide 200 or 100 μg/mL)	> (values below the line were determined using two concentrations of peptide 200 or 100 μg/mL)	≤ 100	> (values below the line were determined using two concentrations of peptide 200 or 100 μg/mL)	> (values below the line were determined using two concentrations of peptide 200 or 100 μg/mL)	≤ 100	> (values below the line were determined using two concentrations of peptide 200 or 100 μg/mL)	≤ 100	> (values below the line were determined using two concentrations of peptide 200 or 100 μg/mL)	≤ 100	100
TVGGLVKWILDTFKKFA [STIP3-11, TVGGLVKWILDTFKKFA]	50	50	50	100	50	100	100	50	> (> symbol indicates that no inhibition was observed at the highest concentration of peptide tested: 25 μg/mL)	> (values below the line were determined using two concentrations of peptide 200 or 100 μg/mL)	> (values below the line were determined using two concentrations of peptide 200 or 100 μg/mL)	≤ 100	> (values below the line were determined using two concentrations of peptide 200 or 100 μg/mL)	> (values below the line were determined using two concentrations of peptide 200 or 100 μg/mL)	≤ 100	> (values below the line were determined using two concentrations of peptide 200 or 100 μg/mL)	≤ 100	> (values below the line were determined using two concentrations of peptide 200 or 100 μg/mL)	≤ 100	25
TVGGLVKWILDTVKKFI [STIP3-5, TVGGLVKWILDTVKKFI]	25	50	12.5	50	25	25	25	25	25 µg/mL	> (values below the line were determined using two concentrations of peptide 200 or 100 μg/mL)	> (values below the line were determined using two concentrations of peptide 200 or 100 μg/mL)	≤ 100	> (values below the line were determined using two concentrations of peptide 200 or 100 μg/mL)	> (values below the line were determined using two concentrations of peptide 200 or 100 μg/mL)	≤ 100	> (values below the line were determined using two concentrations of peptide 200 or 100 μg/mL)	≤ 100	> (values below the line were determined using two concentrations of peptide 200 or 100 μg/mL)	≤ 100	100
